Assay results as given in patent publication US10450549B2, “Aryloxyphenoxypropionate tolerance in turfrgass species and use of AAD1 as a selectable marker” (Dow AgroSciences, LLC, priority 2004, dated 2019).

Assays:
[1] = system: AAD1 (v3)-transformed T1 Arabidopsis; assay: T1 Arabidopsis response to postemergence herbicide (2,4-D, dichlorprop, haloxyfop, fluroxypyr), % visual injury 2 WAT: AAD1 (v3) transformants; assay type: in vivo, Arabidopsis thaliana; conditions: for % Injury Ave / % Injury Range / individuals with 20-40% injury / individuals with <20% injury / individuals with >40% injury / % Injury 20-40% / % Injury <20% / % Injury >40%: 2 WAT; for resistance/tolerance in AAD1 (v3)-transformed T1 Arabidopsis: haloxyfop 400-1,600 g ae/ha, fluroxypyr; for % Injury 20-40% / % Injury <20% / % Injury >40%: number of individuals
Procedure: Freshly harvested T1 seed (transformed with native [AAD1 (v2)] or plant optimized [AAD1 (v3)] gene) was allowed to dry for 7 days at room temperature. T1 seed was sown in 26.5×51-cm germination trays (T.O. Plastics Inc., Clearwater, Minn.), each receiving a 200 mg aliquots of stratified T1 seed (˜10,000 seed) that had previously been suspended in 40 ml of 0.1% agarose solution and stored at 4° C. for 2 days to complete dormancy requirements and ensure synchronous seed germination.
Sunshine Mix LP5 (Sun Gro Horticulture Inc., Bellevue, Wash.) was covered with fine vermiculite and subirrigated with Hoagland's solution until wet, then allowed to gravity drain. Each 40 ml aliquot of stratified seed was sown evenly onto the vermiculite with a pipette and covered with humidity domes (KORD Products, Bramalea, Ontario, Canada) for 4-5 days. Domes were removed 1 day prior to initial transformant selection using glufosinate postemergence spray (selecting for the co-transformed PAT gene).
Five to six days after planting (DAP) and again 10 DAP, T1 plants (cotyledon and 2-4-1f stage, respectively) were sprayed with a 0.2% solution of Liberty herbicide (200 g ai/L glufosinate, Bayer Crop Sciences, Kansas City, Mo.) at a spray volume of 10 ml/tray (703 L/ha) using a DeVilbiss compressed air spray tip to deliver an effective rate of 280 g ai/ha glufosinate per application. Survivors (plants actively growing) were identified 5-7 days after the final spraying and transplanted individually into 3-inch pots prepared with potting media (Metro Mix 360). Transplanted plants were covered with humidity domes for 3-4 days and placed in a 22° C. growth chamber as before. Domes were subsequently removed and plants moved to the greenhouse (22+5° C., 50+30% RH, 14 h light:10 dark, minimum 500 μE/m^2s^1 natural+supplemental light) at least 1 day prior to testing for the ability of AAD1 (v3) (plant optimized gene) or AAD1 (v2) (native microbial gene) to provide phenoxy auxin herbicide resistance.
Random individual T1 plants selected for glufosinate resistance above were confirmed for expression of the PAT protein using a PAT ELISA kit (Part no. 7000045, Strategic Diagnostics, Inc., Newark, Del.) to non-destructively confirm fidelity of selection process (manufacturer's protocol). Plants were then randomly assigned to various rates of phenoxy herbicides (dichlorprop or 2,4-D). […] Elevated rates were applied in subsequent trials (50, 200, 800, or 3200 g ae/ha).
All auxin herbicide applications were made using the DeVilbiss sprayer as described above to apply 703 L/ha spray volume (0.4 ml solution/3-inch pot) or applied by track sprayer in a 187 L/ha spray volume. […] Dichlorprop used was technical grade (Sigma, St. Louis, Mo.) dissolved in DMSO and diluted in water (<1% DMSO final concentration). As herbicide rates increased beyond 800 g ae/ha, the pH of the spray solution became exceedingly acidic, burning the leaves of young, tender Arabidopsis plants and complicating evaluation of the primary effects of the herbicides. It became standard practice to apply these high rates of phenoxy herbicides in 200 mM Tris buffer (pH 9.0) to a final pH of ˜7-8.
Although Arabidopsis, being a dicot, is not an optimal system for testing ACCase-inhibiting AOPP grass herbicides, AAD1 (v3)-transformed T1 plants were subjected to elevated rates (400-1600 g ae/ha) of RS-haloxyfop acid (internally synthesized) that do cause growth abnormalities and death of wildtype Arabidopsis using the DeVilbiss sprayer as described above. Injury ratings were taken 7 and 14 days after treatment. Likewise, T1 individuals were treated with the pyridyloxyacetate auxin herbicide, fluroxypyr.
Table 16. […] Response is presented in terms of % visual injury 2 WAT. […] Since each T1 is an independent transformation event, one can expect significant variation of individual T1 responses within a given rate. An arithmetic mean and standard deviation is presented for each treatment. […]

[2] = system: creeping bentgrass cv Crenshaw callus; assay: Callus selection conditions with quizalofop and haloxyfop: creeping bentgrass; assay type: cell-based, Agrostis stolonifera
Procedure: (§1) Selection conditions for creeping bentgrass cv Crenshaw and Kentucky bluegrass cv Shamrock were established using the grass-active herbicides, quizalofop and haloxyfop. Concentrations of quizalofop and haloxyfop ranged from 0 to 300 nM dissolved in defined callus maintenance media for each species. Callus tissue, derived from mature seeds of each species or cultivar, was used in the experiment. In the case of creeping bentgrass cv Crenshaw, calli maintained on CBG-3 medium were transferred to plates of CBG-3 medium containing either haloxyfop or quizalofop at 0, 50, 100, 150, 200, 250, and 300 nM final concentrations. Visual observations (growth of callus and development of necrosis) were made over a period of 1.5 months. For Kentucky bluegrass cv Shamrock and experimental line A98, calli maintained on KBG-2 were transferred to plates of KBG-2 medium containing 0, 50, 100, 150, 200, 250, and 300 nM final concentrations of the herbicides. Visual observations of callus growth and necrosis were made over a 2.5 month period. […] The calli became necrotic at lower concentrations of quizalofop relative to haloxyfop and the response was more rapid. […]

[3] = system: Kentucky bluegrass cv Shamrock callus; assay: Callus selection conditions with quizalofop and haloxyfop: Kentucky bluegrass; assay type: cell-based
Procedure: as §1

[4] = Rebuilt AAD1 (v3) gene, 50 g ae/ha
[5] = Rebuilt AAD1 (v3) gene, 200 g ae/ha
[6] = Rebuilt AAD1 (v3) gene, 800 g ae/ha

## CC(Oc1ccc(Cl)cc1Cl)C(=O)O (racemic) [(R,S)-dichlorprop, 2,4-dichlorophenoxypropionic acid]
[1]; AAD1 v3, 12.5 g ae/ha
  % Injury Ave: 5.0%
  % Injury Range: 0-20%
  individuals with 20-40% injury: 1
  individuals with <20% injury: 7
  individuals with >40% injury: 0
[1]; AAD1 v3, 50 g ae/ha
  % Injury Ave: 3.1%
  % Injury Range: 0-25%
  individuals with 20-40% injury: 1
  individuals with <20% injury: 7
  individuals with >40% injury: 0
[1]; AAD1 v3, 200 g ae/ha
  % Injury Ave: 40.0%
  % Injury Range: 0-100%
  individuals with 20-40% injury: 1
  individuals with <20% injury: 4
  individuals with >40% injury: 3
[1]; AAD1 v3, 800 g ae/ha
  % Injury Ave: 51.9%
  % Injury Range: 20-100%
  individuals with 20-40% injury: 5
  individuals with <20% injury: 0
  individuals with >40% injury: 3

## O=C(O)COc1ccc(Cl)cc1Cl [2,4-D, 2,4-dichlorophenoxyacetic acid]
[1]; 3,200 g ae/ha
  injury of some AAD1 (v3) T1 individuals: little or no injury
[1]; AAD1 (v3), 200 g ae/ha
  T1 plants uninjured: > 73%
[1]; [4]
  % Injury Ave: 24.3%
  individuals with 20-40% injury: 1
  individuals with <20% injury: 10
  individuals with >40% injury: 5
[1]; [5]
  % Injury Ave: 14%
  individuals with 20-40% injury: 4
  individuals with <20% injury: 11
  individuals with >40% injury: 1
[1]; [6]
  % Injury Ave: 14.7%
  individuals with 20-40% injury: 4
  individuals with <20% injury: 11
  individuals with >40% injury: 1

## C[C@@H](Oc1ccc(Oc2cnc3cc(Cl)ccc3n2)cc1)C(=O)O [quizalofop]
[2]
  concentration sufficient to kill callus within six weeks: 150 nM
[3]
  concentration needed to kill all calli: 200 nM

## Nc1c(Cl)c(F)nc(OCC(=O)O)c1Cl [Fluroxypyr]
[1]
  resistance/tolerance in AAD1 (v3)-transformed T1 Arabidopsis: No resistance was observed

## CC(Oc1ccc(Oc2ncc(C(F)(F)F)cc2Cl)cc1)C(=O)O (centres unmarked) [haloxyfop]
[2]
  concentration sufficient to kill callus within six weeks: 250 nM
[1]; 100 g ae/ha, AAD1 v3
  % Injury Ave: 0.0%
  % Injury Range: 0%
  % Injury 20-40%: 0
  % Injury <20%: 4
  % Injury >40%: 0
[1]; 200 g ae/ha, AAD1 v3
  % Injury Ave: 0.0%
  % Injury Range: 0%
  % Injury 20-40%: 0
  % Injury <20%: 4
  % Injury >40%: 0
[1]; 400 g ae/ha, AAD1 v3
  % Injury Ave: 6.3%
  % Injury Range: 0-20%
  % Injury 20-40%: 1
  % Injury <20%: 3
  % Injury >40%: 0
[1]; 800 g ae/ha, AAD1 v3
  % Injury Ave: 46.3%
  % Injury Range: 0-85%
  % Injury 20-40%: 1
  % Injury <20%: 1
  % Injury >40%: 2
[1]; 1600 g ae/ha, AAD1 v3
  % Injury Ave: 65.0%
  % Injury Range: 0-100%
  % Injury 20-40%: 0
  % Injury <20%: 1
  % Injury >40%: 3
[1]
  resistance/tolerance in AAD1 (v3)-transformed T1 Arabidopsis: increased tolerance
[3]
  concentration needed to kill all calli: 300 nM
